The record followed here is patent US5424396A, “Antimicrobial peptide and antimicrobial agent” (Morinaga Milk Industry Co., Ltd., priority 1991, dated 1995).

The assay relates to Escherichia coli. The assay is described as follows: Antimicrobial activity test: rate of inhibition of E. coli proliferation (turbidity). The assay is classed as cell-based. The following applies: 16 hours at 37° C. How it is done: One platinum loop was collected from a stock slant of Escherichia coli, streaked on a standard agar medium (manufactured by Nissui Pharmaceutical Co.) and incubated under aerobic conditions for 16 hours at 37° C., the colonies which grew on the surface of the standard agar medium were collected using a platinum loop, suspended in sterilized physiological saline solution, the turbidity was measured using a spectrophotometer (manufactured by Hitachi Manufacturing Co.) and adjusted to 0.1 (O.D.; 660 nm) and a pre-incubation solution was prepared.
Bactocasitone (manufactured by Difco Laboratory Co.) was dissolved at a concentration of 1% in purified water, the pH was adjusted to 7.0 with 1M sodium hydroxide, the solution was sterilized at 115° C. for 15 minutes and a basal medium (liquid medium) was prepared. […]
The percentages of the rate of inhibition of proliferation are not in weight (same hereinafter).

Regarding Trp-Gln-Trp-Arg (WQWR) [Sample No. 7], the “inhibitory rate (rate of inhibition of proliferation)” value (from here on “inhibitory rate”) is given as 0% (added quantity 0.5 μM); 21% (added quantity 1 μM); 68% (added quantity 2 μM); 83% (added quantity 5 μM); 95% (added quantity 10 μM); 100% (added quantity 20 μM). Further, the “inhibitory rate” value (added quantity 60 μM) is given as 100%, the “inhibitory rate” value (added quantity 100 μM) was 100% and the “inhibitory rate” value (added quantity 200 μM) stood at 100%.
